Source: publication PMC12624955, “Exploring diarylheptanoid derivatives to target LIMK1 as potential agents against colorectal cancer” (Journal of Enzyme Inhibition and Medicinal Chemistry, 2025)

Target: T1, LIMK1 (Homo sapiens, UniProt P53667)
T1 construct: purchased Thermo Fisher Scientific (SelectScreen Kinase assay service)
Experiment: LanthaScreen Eu kinase binding assay (SelectScreen), LIMK1 inhibition
Details: not given
Experimental: The inhibitory activities of the compounds against kinases were tested using the SelectScreen Kinase assay from Thermo Fisher Scientific in Waltham, MA, USA. The LanthaScreen Eu kinase binding assay was used to validate the LIMK1 inhibition activity of the compounds, and was performed according to the manufacturer’s protocol (https://www.thermofisher.com/tw/zt/home/industrial/pharma-biopharma/drug-discovery-development/target-and-lead-identification-and-validation/kinasebiology/kinase-activity-assays/lanthascreentm-eu-kinase-binding-assay/lanthascreen-eu-kinase-binding-assay-validation-table.html). This endpoint assay quantifies inhibitor binding through the displacement of a fluorescently labelled ATP-competitive tracer from LIMK1. A mixture of the 100× compounds, 2× LIMK1/antibody mixture (Eu-anti-His), 4× tracer 236, and kinase buffer were mixed sequentially. After incubation at room temperature for 1 h, the mixture was analysed using a fluorescence plate reader. The kinase inhibition assay results were expressed as the average of two replicates.

T1 sequence (P53667 whole entry): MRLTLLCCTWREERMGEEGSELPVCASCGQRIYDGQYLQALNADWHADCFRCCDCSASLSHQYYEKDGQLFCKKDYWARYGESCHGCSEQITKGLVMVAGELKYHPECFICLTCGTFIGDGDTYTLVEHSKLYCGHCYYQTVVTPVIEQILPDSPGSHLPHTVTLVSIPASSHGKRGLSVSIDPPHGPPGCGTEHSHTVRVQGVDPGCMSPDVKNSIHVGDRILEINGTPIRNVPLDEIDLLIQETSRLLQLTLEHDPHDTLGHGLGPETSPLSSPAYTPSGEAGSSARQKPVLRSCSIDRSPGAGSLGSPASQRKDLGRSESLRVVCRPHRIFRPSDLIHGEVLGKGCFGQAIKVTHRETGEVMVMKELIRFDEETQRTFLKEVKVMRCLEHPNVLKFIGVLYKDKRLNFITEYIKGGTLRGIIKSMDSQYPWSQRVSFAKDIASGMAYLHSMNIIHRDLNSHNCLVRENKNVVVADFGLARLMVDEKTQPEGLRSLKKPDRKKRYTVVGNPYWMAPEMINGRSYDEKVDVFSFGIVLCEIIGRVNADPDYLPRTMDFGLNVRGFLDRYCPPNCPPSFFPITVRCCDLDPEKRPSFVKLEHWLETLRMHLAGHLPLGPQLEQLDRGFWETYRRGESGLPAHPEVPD

IC50 [µM] | Structure (SMILES)
1.77 | O=C(/C=C/c1ccc(O)c(O)c1)CCCCc1ccccc1O [Compound 7a, 1-(3.4-Dihydroxyphenyl)-7-(2-hydroxyphenyl)hept-1-en-3-one]
1.11 | O=C(/C=C/c1ccc(O)c(O)c1)CCCCc1cccc(O)c1 [Compound 7b, 1-(3.4-Dihydroxyphenyl)-7-(3-hydroxyphenyl)hept-1-en-3-one]
1.09 | O=C(/C=C/c1ccc(O)c(O)c1)CCCCc1ccc(O)cc1 [Compound 7c, 1-(3.4-Dihydroxyphenyl)-7-(4-hydroxyphenyl)hept-1-en-3-one]
1.39 | O=C(/C=C/c1ccc(O)c(O)c1)CCCCn1ccc2ccc(O)cc21 [Compound 13b, (E)-1-(3.4-dihydroxyphenyl)-7-(6-hydroxy-1H-indol-1-yl)hept-1-en-3-one]
1.88 | COCOc1cccc2c1ccn2CCCCC(=O)/C=C/c1ccc(O)c(O)c1 [Compound 15, (E)-1-(3,4-dihydroxyphenyl)-7-(4-(methoxymethoxy)-1H-indol-1-yl)hept-1-en-3-one]
1.49 | O=C(/C=C/c1ccc(O)c(O)c1)CCCCn1ccc2ccccc21 [Compound 18, (E)-1-(3,4-dihydroxyphenyl)-7-(1H-indol-1-yl)hept-1-en-3-one]
1.59 | O=C(/C=C/c1ccc(O)c(O)c1)CCCCc1ccccc1 [Compound I]
0.57 | O=C(/C=C/c1cc(O)c(O)c(O)c1)CCCCc1ccccc1 [Compound XV]

Same assay, conditions: as printed in text

IC50 [µM] | Structure (SMILES)
0.569 | O=C(/C=C/c1cc(O)c(O)c(O)c1)CCCCc1ccccc1 [Compound XV]

Same assay, conditions: compound at 10 μM, average of two replicates, read-out: Inhibition percentage at 10 μM

inhibition at 10 µM [%] | Structure (SMILES)
89 | O=C(/C=C/c1ccc(O)c(O)c1)CCCCc1ccccc1O [Compound 7a, 1-(3.4-Dihydroxyphenyl)-7-(2-hydroxyphenyl)hept-1-en-3-one]
102 | O=C(/C=C/c1ccc(O)c(O)c1)CCCCc1cccc(O)c1 [Compound 7b, 1-(3.4-Dihydroxyphenyl)-7-(3-hydroxyphenyl)hept-1-en-3-one]
106 | O=C(/C=C/c1ccc(O)c(O)c1)CCCCc1ccc(O)cc1 [Compound 7c, 1-(3.4-Dihydroxyphenyl)-7-(4-hydroxyphenyl)hept-1-en-3-one]
37 | O=C(CCCCc1ccccc1O)CCc1ccc(O)c(O)c1 [Compound 8a, 1-(3.4-Dihydroxyphenyl)-7-(2-hydroxyphenyl)heptan-3-one]
34 | O=C(CCCCc1cccc(O)c1)CCc1ccc(O)c(O)c1 [Compound 8b, 1-(3.4-Dihydroxyphenyl)-7-(3-hydroxyphenyl)heptan-3-one]
47 | O=C(CCCCc1ccc(O)cc1)CCc1ccc(O)c(O)c1 [Compound 8c, 1-(3.4-Dihydroxyphenyl)-7-(4-hydroxyphenyl)heptan-3-one]
106 | O=C(/C=C/c1ccc(O)c(O)c1)CCCCn1ccc2ccc(O)cc21 [Compound 13b, (E)-1-(3.4-dihydroxyphenyl)-7-(6-hydroxy-1H-indol-1-yl)hept-1-en-3-one]
51 | O=C(CCCCn1ccc2c(O)cccc21)CCc1ccc(O)c(O)c1 [Compound 14a, 1-(3,4-Dihydroxyphenyl)-7-(4-hydroxy-1H-indol-1-yl)heptan-3-one]
53 | O=C(CCCCn1ccc2ccc(O)cc21)CCc1ccc(O)c(O)c1 [Compound 14b, 1-(3,4-Dihydroxyphenyl)-7-(6-hydroxy-1H-indol-1-yl)heptan-3-one]
106 | COCOc1cccc2c1ccn2CCCCC(=O)/C=C/c1ccc(O)c(O)c1 [Compound 15, (E)-1-(3,4-dihydroxyphenyl)-7-(4-(methoxymethoxy)-1H-indol-1-yl)hept-1-en-3-one]
110 | O=C(/C=C/c1ccc(O)c(O)c1)CCCCn1ccc2ccccc21 [Compound 18, (E)-1-(3,4-dihydroxyphenyl)-7-(1H-indol-1-yl)hept-1-en-3-one]
28 | O=C(CCCCn1ccc2ccccc21)CCc1ccc(O)c(O)c1 [Compound 19, 1-(3,4-Dihydroxyphenyl)-7-(1H-indol-1-yl)heptan-3-one]
101 | O=C(/C=C/c1ccc(O)c(O)c1)CCCCc1ccccc1 [Compound I]
≤ 0 | O=C(/C=C/c1ccccc1)CCCCc1ccccc1 [Compound VII]
82 | O=C(/C=C/c1ccc(O)c(O)c1)CCCc1ccccc1 [Compound VI]
68 | O=C(/C=C/c1ccc(O)c(O)c1)CCc1ccccc1 [Compound V]
112 | O=C(/C=C/c1cc(O)c(O)c(O)c1)CCCCc1ccccc1 [Compound XV]
≤ 0 | O=C(/C=C/c1ccc(O)c(F)c1)CCCCc1ccccc1 [Compound X]
84 | O=C(/C=C/c1ccc(O)c(O)c1)c1ccccc1 [III]
30 | O=C(CCCCc1ccccc1)CCc1ccc(O)c(O)c1 [II]
56 | O=C(/C=C/c1ccc(O)c(O)c1)Cc1ccccc1 [IV]
≤ 0 | O=C(/C=C/c1cccc(O)c1)CCCCc1ccccc1 [IX]
≤ 0 | O=C(/C=C/c1ccc(O)cc1)CCCCc1ccccc1 [VIII]
7 | O=C(/C=C/c1ccc(O)c([N+](=O)[O-])c1)CCCCc1ccccc1 [XIII]
1 | O=C(/C=C/c1ccc(O)c(Br)c1)CCCCc1ccccc1 [XII]
1 | COc1cc(/C=C/C(=O)CCCCc2ccccc2)ccc1O [XIV]
4 | O=C(/C=C/c1ccc(O)c(Cl)c1)CCCCc1ccccc1 [XI]

System: HT-29
Experiment: MTT assay (cell viability)
Type: cell-based
Details: Homo sapiens, 72 h, mean ± SD
Experimental: (§1) Colorectal cell line, HCT-116, was purchased from the Bioresource Collection and Research Centre (BCRC, Hsinchu, Taiwan), while HT-29 was obtained from the American Type Culture Collection (ATCC, Manassas, VA, USA). Both cell lines were maintained in McCoy’s 5 A medium (with L-glutamine and 2.2 g/L NaHCO3, M4892, Sigma) supplemented with 10% foetal bovine serum (Corning Incorporated, NY, USA) and 1% penicillin–streptomycin–amphotericin B (100 unit/ml penicillin G, 0.1 mg/ml streptomycin sulphate, 0.25 μg/ml amphotericin B, Corning Incorporated, NY, USA). All cultures were maintained in a humidified incubator at 37 °C with 5% CO2.
(§2) Cells were seeded in 96-well plates at a density of 3 × 10^3 cells/well in 100 μl of culture medium and treated with compounds at the indicated concentrations (0.3, 1, 3, 10, and 30 μM) for 72 h. Following treatment, the 3-(4,5-dimethylthiazol-2-yl)-2,5-diphenyltetrazolium bromide (MTT) solution (5 mg/ml in Phosphate-buffered saline (PBS)) was added to each well to reach a final concentration of 0.5 mg/ml, and the cells were incubated at 37 °C for 1 h. The resulting formazan crystal was dissolved in 100 µl of DMSO, and the absorbance was measured at 550 nm using an ELISA reader (Molecular Device, Sunnyvale, CA, USA).

IC50 [µM] | Structure (SMILES)
> 30 | O=C(/C=C/c1cc(O)c(O)c(O)c1)CCCCc1ccccc1 [Compound XV]

System: HCT-116
Experiment: MTT assay (cell viability)
Type: cell-based
Details: Homo sapiens, 72 h, mean ± SD
Experimental: as §1, §2

IC50 [µM] | Structure (SMILES)
> 30 | O=C(/C=C/c1cc(O)c(O)c(O)c1)CCCCc1ccccc1 [Compound XV]

System: LIMK
Experiment: not given
Details: cited from earlier work

Structure (SMILES) | IC50 [µM]
COc1cc(/C=C/C(=O)CC(=O)/C=C/c2ccc(O)c(OC)c2)ccc1O [curcumin] | 30

System: HT-29
Experiment: Sulforhodamine B assay (cell proliferation)
Type: cell-based
Details: Homo sapiens, SRB assay, 72 h, mean ± SD
Experimental: as §1
(§3) Cells were seeded in 96-well plates at a density of 3 × 10^3 cells/well in 100 μl of culture medium and treated with compounds at the indicated concentrations for 72 h. After treatment, cells were fixed with 10% trichloroacetic acid for 20 min and washed with H2O. The cells were then stained with 0.4% sulforhodamine B (SRB) in 1% acetic acid for 20 min, followed by two washes with 1% acetic acid. After the well-dried, the protein-bound dye was dissolved in 100 µl of 10 mM Tris base solution, and the absorbance was measured at 515 nm using an ELISA reader (Molecular Device, Sunnyvale, CA, USA).

GI50 [µM] | Structure (SMILES)
28.8 ± 1.8 | O=C(/C=C/c1cc(O)c(O)c(O)c1)CCCCc1ccccc1 [Compound XV]

System: HCT-116
Experiment: Sulforhodamine B assay (cell proliferation)
Type: cell-based
Details: Homo sapiens, SRB assay, 72 h, mean ± SD
Experimental: as §1, §3

GI50 [µM] | Structure (SMILES)
> 30 | O=C(/C=C/c1cc(O)c(O)c(O)c1)CCCCc1ccccc1 [Compound XV]

Same assay, conditions: concentration of 30 µM

Structure (SMILES) | growth inhibition of HCT-116 cells
O=C(/C=C/c1cc(O)c(O)c(O)c1)CCCCc1ccccc1 [Compound XV] | did not inhibit the growth
